Test results reported in ChEMBL document CHEMBL1201862, “PubChem BioAssay data set” (2004).
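Following 48 hours of exposure in 96-well plates, responses at five concentrations were used to interpolate endpoints linearly. GI50: concentration for 50% inhibition of growth.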 Calls of active or inactive are those of the source. Cut-off read from the data, not from the text of the source: active = GI50 up to about 1.1 µM and inactive = higher.

Tests used:
Assay in all cases: DTP human tumour cell line panel, 48 h
EKVX = system: EKVX
Malme-3M = system: Malme-3M
SN12C = system: SN12C
SNB-19 = system: SNB-19
Hs-578T = system: Hs-578T
RPMI-8226 = system: RPMI-8226
HCC 2998 = system: HCC 2998
RXF 393 = system: RXF 393
SK-OV-3 = system: SK-OV-3
CCRF-CEM = system: CCRF-CEM
HOP-62 = system: HOP-62
CAKI-1 = system: CAKI-1
HT-29 = system: HT-29
HCT-15 = system: HCT-15
SK-MEL-5 = system: SK-MEL-5
PC-3 = system: PC-3
UACC-257 = system: UACC-257
NCI-H522 = system: NCI-H522
U-251 = system: U-251
SNB-75 = system: SNB-75

SMILES	GI50 (EKVX)	GI50 (Malme-3M)	GI50 (SN12C)	GI50 (SNB-19)	GI50 (Hs-578T)	GI50 (RPMI-8226)	GI50 (HCC 2998)	GI50 (RXF 393)	GI50 (SK-OV-3)	GI50 (CCRF-CEM)	GI50 (HOP-62)	GI50 (CAKI-1)	GI50 (HT-29)	GI50 (HCT-15) [µM]	GI50 (SK-MEL-5)	GI50 (PC-3)	GI50 (UACC-257)	GI50 (NCI-H522)	GI50 (U-251)	GI50 (SNB-75)
COC(=O)c1c(CC(Cc2ccc3c(c2)CCCC3)C(=O)O)ccc2c1CCCC2 (stereo not given)	25.2 µM (inactive)	31.3 µM (inactive)	36.9 µM (inactive)	40.7 µM (inactive)	25.8 µM (inactive)	27.6 µM (inactive)	32.4 µM (inactive)	35.2 µM (inactive)	41 µM (inactive)	45.4 µM (inactive)	22.8 µM (inactive)	36 µM (inactive)	33 µM (inactive)	18	34.4 µM (inactive)	36.4 µM (inactive)	16 µM (inactive)	11.6 µM (inactive)	37.2 µM (inactive)	36.4 µM (inactive)
O=C1C(/N=N/c2ccc(-c3nc4ccccc4[nH]3)cc2)NC(=S)N1c1ccccc1 (stereo not given)	> 100 µM (inactive)	> 100 µM (inactive)	> 100 µM (inactive)	> 100 µM (inactive)	> 100 µM (inactive)	22.1 µM (inactive)	21.2 µM (inactive)	13.4 µM (inactive)	> 100 µM (inactive)	10.7 µM (inactive)	> 100 µM (inactive)	> 100 µM (inactive)	31.8 µM (inactive)	18.2	> 100 µM (inactive)	98.2 µM (inactive)	> 100 µM (inactive)	48.6 µM (inactive)	33 µM (inactive)	93.1 µM (inactive)
Nc1ccn([C@H]2CO[C@@H](CO)O2)c(=O)n1	> 55.8 µM (inactive)	62.2 µM (inactive)	1.95 µM (inactive)	4.26 µM (inactive)	> 100 µM (inactive)	> 94 µM (inactive)	33.7 µM (inactive)	1.83 µM (inactive)	3.77 µM (inactive)	0.238 µM (active)	1.67 µM (inactive)	0.222 µM (active)	15 µM (inactive)	5.4	18.9 µM (inactive)	1.39 µM (inactive)	97.7 µM (inactive)	7.03 µM (inactive)	10.5 µM (inactive)	> 100 µM (inactive)
NS(=O)(=O)OCCCCCCCOS(N)(=O)=O	272 µM (inactive)	437 µM (inactive)	133 µM (inactive)	275 µM (inactive)	527 µM (inactive)	296 µM (inactive)	300 µM (inactive)	289 µM (inactive)	471 µM (inactive)	46.8 µM (inactive)	142 µM (inactive)	84.3 µM (inactive)	504 µM (inactive)	349	319 µM (inactive)	249 µM (inactive)	451 µM (inactive)	259 µM (inactive)	198 µM (inactive)	94.8 µM (inactive)
